Assays:
[1] = target: FLT1 (Homo sapiens (Human), UniProt P17948); test: Kinome binding analysis at 100 nM, FLT1; conditions: read-out: Percentage inhibition at 100 nM, FLT1
[2] = target: 468 kinases (Homo sapiens, UniProt P08581); test: biochemical; format: binding; conditions: MET; read-out: % Inhibition @ 100 nM
[3] = target: 468 kinases (Homo sapiens, UniProt P00519, E255K); test: biochemical; format: binding; conditions: ABL1 (E255K)-phosphorylated; read-out: % Inhibition @ 100 nM
[4] = target: 468 kinases (Homo sapiens, UniProt Q13882); test: biochemical; format: binding; conditions: BRK; read-out: % Inhibition @ 100 nM
[5] = target: 468 kinases (Homo sapiens, UniProt Q8TDX7); test: biochemical; format: binding; conditions: NEK7; read-out: % Inhibition @ 100 nM
[6] = target: 468 kinases (Homo sapiens, UniProt Q6P2M8); test: biochemical; format: binding; conditions: CAMK1B; read-out: % Inhibition @ 100 nM
[7] = target: 468 kinases (Homo sapiens, UniProt O94921); test: biochemical; format: binding; conditions: PFTK1; read-out: % Inhibition @ 100 nM
[8] = target: CSF1R-autoinhibited (Homo sapiens (Human), UniProt P07333); test: Kinome binding analysis at 100 nM, CSF1R-autoinhibited; conditions: read-out: Percentage inhibition at 100 nM, CSF1R-autoinhibited

Row | Compound | inhibition at 0.1 µM [1] | inhibition at 0.1 µM [2] | inhibition at 0.1 µM [3] | inhibition at 0.1 µM [4] | inhibition at 0.1 µM [5] | inhibition at 0.1 µM [6] | inhibition at 0.1 µM [7] | inhibition at 0.1 µM [8]
1 | CCN(CC)CCNC(=O)c1c(C)[nH]c(/C=C2\C(=O)Nc3ccc(CCO)cc32)c1C [Compound No. 10, (Z)—N-(2-(Diethylamino)ethyl)-5-((5-(2-hydroxyethyl)-2-oxoindolin-3-ylidene)methyl)-2,4-dimethyl-1H-pyrrole-3-carboxamide] | 42% | 13% | 35% |  |  |  |  | 
2 | CCN(CC)CCNC(=O)c1c(C)[nH]c(/C=C2\C(=O)Nc3ccc(CCC(N)=O)cc32)c1C [Compound No. 16, (Z)-5-((5-(3-Amino-3-oxopropyl)-2-oxoindolin-3-ylidene)methyl)-N-(2-(diethylamino)ethyl)-2,4-dimethyl-1H-pyrrole-3-carboxamide] |  |  |  | 1% | 5% | 30% | 13% | 14%

— patent US12435059B2, “AMP-activated protein kinase inhibitors and methods of making and using the same” (The Regents of the University of Colorado, priority 2019, dated 2025)
